Patent publication US9788539B2, “Platelet protection solution having beta-galactosidase and sialidase inhibitors” (Velico Medical, Inc., priority 2011, dated 2017)
Entries after “also recorded” stand apart in the source; their conditions may differ.

Key:
mouse platelets [1] = assay: Surface receptor loss of mouse platelets stored at room temperature; type: cell-based; details: DANA added during storage
mouse platelets [2] = assay: Mouse platelets stored at RT for 48 h with different concentrations of DANA, counted by flow cytometry; type: cell-based; details: 0.1 mM DANA, 48 h at RT
Protocol: Mouse platelets were isolated as described in Example 3, re-suspended in platelet resuspension buffer and split to four aliquots. […] The samples were incubated for 30 min at 37° C., centrifuged and supernatants removed. The platelets re-suspended in plasma. DANA and glucose were restored to their initial concentrations. The platelet suspensions were stored at RT. After 48 h, platelets under each storage condition were counted by flow cytometry.

human platelets = assay: Human platelets stored in plasma at RT, size and density by FSC/SSC; type: cell-based; details: 72 h at RT in plasma
bacteria = assay: Bacterial detection in stored platelet concentrate with SLP reagent, time of color detection (TOCD); type: cell-based; details: for time of color detection (TOCD): 1 mM DANA
Protocol: To increase the formation of planktonic bacteria, thereby improving the sensitivity of the bacterial detection, platelet storage studies were performed in a mixture of PAS (INTERSOL® solution) and plasma (80:20). Many bacterial detection methods are available. We used SLP Reagent Set (297-51501, Wako Chemicals USA), containing silkworm larvae plasma (SLP) and […] (DOPA), reconstituted according to manufacturer's instruction and stored as 100 μL aliquots at -80° C. When a sample is mixed with SLP reagent, peptidoglycan derived from the cell wall of Gram-positive and Gram-negative bacteria in the sample initiates a series of reactions including activation of multiple serine proteases called prophenoloxidase (proPO) cascade. The phenoloxidase (PO) produced in the cascade reactions oxidizes the substrate in the SLP reagent, […] (DOPA), to form melain (dark blue). The bacteria concentration in the test sample is inversely proportional to the onset time of color development: shorter time=higher concentration of bacteria; longer time=lower concentration of bacteria.
One bag of a platelet concentrate was split to two 50-mL Falcon tubes, PGE1 was added. After centrifugation at 900×g for 10 min, 80% of the supernatant (PPP) (relative to the total volume) was removed, and replaced with equal volume of platelet protection solution. The platelet was thoroughly re-suspended. The platelet suspensions were pooled and split to 4 aliquots in 15-mL Falcon tubes. DANA (1 mM) in PBS was added to two tubes while only PBS was added to the other tubes. One pair of samples with and without DANA was stored at 4° C. The second pair was kept at RT (22° C.-24° C.). Aliquots of 1.0 mL were removed on Day 0 and Day 9, and immediately pelleted (5 min, 15,800×g). […]
The pellet containing both platelets and bacteria, recovered from 1-mL aliquots sampled at different time points, was re-suspended in 100 μL of 0.1 M NaOH, and heated for 10 min at 70° C. […] The samples were left on the bench, and color development was monitored. The time of color detection (TOCD) was recorded.

mouse platelets [3] = assay: In vivo survival of biotinylated platelets after injection of sialidase inhibitor; details: mice injected with 100 mM DANA vs PBS
Protocol: These studies then addressed whether inhibition of sialidase activity in vivo has an effect on platelet survival. […] Mice were injected with 100 mM DANA or PBS (phosphate buffered saline) as a control, after in vivo platelet biotinylation.

CC(=O)NC1C(O)C=C(C(=O)O)OC1C(O)C(O)CO (stereo not drawn) [DANA]
GPIbα and GPV receptor expression of room temperature stored mouse platelets (mouse platelets [1]): preserved receptors expression; also recorded: inhibited | platelets recovered (mouse platelets [2]; 8 mM glucose, vs 0 mM DANA): approximately 5 fold | size and density of platelets by dot plot analysis (mouse platelets [2]): efficiently preserved the size and density of platelets | platelet shape by side and forward scatter (human platelets; 0.5 mM DANA): visible improvement of the platelet shape | mean fluorescence intensity (MFI) of platelet count/SSC histogram (human platelets; with DANA vs without): increased | bacterial growth in RT stored platelet samples (bacteria; DANA, compared with 4° C. storage): inhibits bacterial growth as effectively as 4° C.-storage | time of color detection (TOCD) (bacteria; Day 9, stored at 4° C.): ~50 min | time of color detection (TOCD) (bacteria; Day 9, stored at RT, INTERSOL/plasma 80:20 (15 min without DANA)): ~34 min | survival of biotinylated platelets in vivo (mouse platelets [3]): increases mouse platelet life span in vivo; also recorded: increases the survival
